From patent US20250319139A1, “METHODS FOR TREATING NEUROINFLAMMATION” (University of Virginia Patent Foundation, priority 2021, published 2025)
“Also recorded” adds a separate entry of the source.

Columns and labels:
Type in all cases: in vivo, mouse
[1] = tested on: C57BL/6J mice; experiment: Novel object recognition test, young adult mice
[2] = tested on: GDNF; experiment: GDNF in the hippocampus by ELISA; details: exercise mice with surgery; intraperitoneal valeric acid
Protocol: IL-1β, IL-6, C3 and GDNF in the hippocampus were detected by using ELISA kits. For testing the IL-1β, IL-6 and GDNF, brain tissues were homogenized on ice in the RIPA buffer containing 25 mM Tris-HCl with pH 7.6, 150 mM NaCl, 1% sodium deoxycholate, 0.1% SDS and a protease inhibitor cocktail containing 10 mg/ml aproteinin, 5 mg/ml […], 5 mg/ml leupetin and 1 mM phenylmethane sulfonylfluoride. For C3 testing, brain tissues were homogenized on ice in the PTR buffer (supplied in the kit). The supernatant was collected for ELISA detection after the homogenate was centrifuged at 13,000 g for 20 min at 4° C. and the protein concentration was determined by the BCA protein assay (Bio-Rad, Hemel Hempstead, Herts, UK). IL-1β, IL-6, C3 and GDNF in supernatant of brain were detected according to the manufacturer's instruction for ELISA, and the amount of them in each sample in the brain was normalized by its total protein content and was expressed as pg/mg protein.

[3] = tested on: newly generated brain cells; experiment: BrdU immunofluorescent staining, brain cell genesis; details: young adult mice with exercise and surgery; intraperitoneal valeric acid
Protocol: Seven days after surgery, mice were given 7 consecutive intraperitoneal injections of 80 mg/kg 5′-bromo-2′-deoxyuridine (BrdU) at 12:00 once daily as previously described. Mice were sacrificed 5 days later for harvesting hippocampus. Hippocampus was fixed in 4% paraformaldehyde in 0.1 M phosphate-buffered saline at 4° C. for 24 h and embedded in paraffin. Five-micron thick coronal brain sections were cut sequentially from Bregma −2 to −4 mm. Antigen retrieval was performed by incubating sections with sodium citrate buffer containing 10 mM sodium citrate, 0.05% Tween 20 (pH 6.0) at 95-100° C. for 20 min. DNA denaturation was done by incubating with 1 N HCl on ice for 3 min, 2 N HCL at room temperature for 3 min, and at 37° C. for 6 min. Sections were blocked with 5% donkey serum in phosphate-buffered saline (PBS) containing 0.5% triton-X 100 for 2 h at room temperature. […] Images were acquired with a fluorescence microscope with a charge-coupled device camera (High Mag Olympus BX51) and a LSM710 confocal microscopy system (ZEISS). […] The number of all cells positively stained for an interested marker or the combination of two markers in the sub-granular zone of the dentate gyrus of each section was counted. The quantitative analyses were performed in a blinded manner.

[4] = Plasma SCFA profiling by GC-MS; details: mice with exercise and surgery, intraperitoneal valeric acid; blood 7 days after surgery
[5] = Cortical valeric acid quantification by HPLC; details: 9-week old mice, intraperitoneal valeric acid vs normal saline; 24 h after the last injection
Protocol: The amount of valeric acid in the cerebral cortex harvested 24 h after the last intraperitoneal injection of valeric acid was determined by a method similar to that reported before. Briefly, 0.1 g cerebral cortex was homogenized in 500 μl aqueous acetonitrile. Supernatant was extracted with 8 ml extraction buffer (hexane: diethyl ether=1:1) and centrifuged at 1800 g for 5 min. 7.5 ml supernatant was collected, mixed with 93 μl 20 mM KOH in methanol and dried at 40° C. under nitrogen gas. Dried residue was reconstituted in 50 μl 2.5% 18-Crown-6 in acetonitrile and was further derivatized with 9-chloromethylanthracene in acetonitrile with addition of tetramethylammonium hydroxide. Finally, 30 μl derivatization solution was loaded to Acclaim C18 column (3 μm, 4.6×100 mm, Thermo Scientific) and separated in Ultimate 3000 high performance liquid chromatograph (HPLC, Thermo Scientific) equipped with UV-visible detector. The peak of derivatized valeric acid was detected at a wavelength of 254 nm. 2-Ethylbutyric acid (2-EA) was added as an internal reference control. The peak area of valeric acid was measured as mAU*min and its peak area of each sample was normalized with that of 2-EA in the sample. Final results were presented as ratios of valeric acid group to NS group.

[6] = tested on: IL-17; experiment: ELISA of IL-17 in the serum
Protocol: (§1) Mice were weighed and anesthetized with isoflurane at 24 h after MCAO. Blood samples were obtained from the right heart after thoracotomy. Blood was centrifuged (13,000 g, 4° C.) after it had been placed at 4° C. for 2 h for the collection of serum. After the collection of blood, mice were perfused with 4° C. saline for brain tissue harvesting. The cerebral cortex (anteroposterior: −1.5 to 2.5 mm, mediolateral: 1.0 to 3.0 mm) was dissected out. All dissection procedures were performed on ice.
(§2) IL-10, IL-17, IL-1β and IL-6 in the serum and brain were detected by using ELISA kits (catalog number: M1000B, M1700, MLB00C and D6050, R&D SYSTEM, Inc., Minneapolis, MN, USA) as we described before. The brain tissues were homogenized on ice in the RIPA buffer containing 25 mM Tris-HCl with pH 7.6, 150 mM NaCl, 1% sodium deoxycholate and 0.1% SDS (catalog number: 89901, Thermo Scientific, Rockford, IL, USA) and a protease inhibitor cocktail containing 10 mg/ml aproteinin, 5 mg/ml peptastin, 5 mg/ml leupetin and 1 mM phenylmethane sulfonylfluoride (catalog number: SRE0055, Sigma-Aldrich, St. Louis, MO, USA). The supernatant was collected for ELISA detection after being centrifuged for 20 min (13,000 g, 4° C.) and the protein concentration was determined by the BCA method. Cytokines in the serum and supernatant of brain were detected according to the manufacturer's instruction. The amount of IL-10, IL-17, IL-1β and IL-6 in each sample in the brain was normalized by its protein content.

[7] = tested on: IL-17; experiment: ELISA of IL-17 in the brain
Protocol: as §1, §2

[8] = mice without MCAO, valeric sodium 100 mg/kg intraperitoneal for 7 days

CCCCC(=O)O [valeric acid]
performance in novel object recognition test ([1]; 13-week old mice without surgery, intracerebroventricular 4 mg/kg once daily for 4 days (1/50 dose of intraperitoneal injection)): did not affect the performance | performance in novel object recognition test ([1]; young adult mice with exercise and surgery, valeric acid 200 mg/kg intraperitoneal once a week vs normal saline): abolished | GDNF levels in the hippocampus [2]: decreased | exercise attenuation of the decrease of newly generated brain cells [3]: this attenuation was blocked | butyric acid in the blood [4]: attenuated this reduction | hexanic acid in the blood [4]: attenuated this reduction | valeric acid in the blood [4]: attenuated this reduction; also recorded: did not increase | amount of valeric acid in the brain (cerebral cortex) [5]: increased | IL-17 in the blood [6, 8]: increase | IL-17 in the blood ([6]; young mice, 100 mg/kg intraperitoneal 1 h before and 6 h after 120-min MCAO, 24 h after MCAO, vs saline): increased | IL-17 in the brain (cerebral cortex) [7, 8]: increase | IL-17 in the brain ([7]; young mice with brain ischemia (120-min MCAO), intraperitoneal valeric acid): did not increase
